Test results taken from patent US20050048508A1, “Trehalose receptor and method for detecting trehalose with the same” (KABUSHIKI KAISHA HAYASHIBARA SEIBUTSU KAGAKU KENKYUJO, priority 2002, published 2005).

Target: T1, T1R1 and T1R3 with G protein α-subunits (α15 and α16/Z chimeric protein) (Mus musculus, UniProt Q925D8+Q99PG6, I706N)
T1 construct: expressed in transfected cells; host or cells: 293 cells, RCB 1637 (human embryonic kidney)
T1 sequence (Q99PG6 20-842 L120P/N244D/D281A/N309Y/P311T/S314P/H418Y): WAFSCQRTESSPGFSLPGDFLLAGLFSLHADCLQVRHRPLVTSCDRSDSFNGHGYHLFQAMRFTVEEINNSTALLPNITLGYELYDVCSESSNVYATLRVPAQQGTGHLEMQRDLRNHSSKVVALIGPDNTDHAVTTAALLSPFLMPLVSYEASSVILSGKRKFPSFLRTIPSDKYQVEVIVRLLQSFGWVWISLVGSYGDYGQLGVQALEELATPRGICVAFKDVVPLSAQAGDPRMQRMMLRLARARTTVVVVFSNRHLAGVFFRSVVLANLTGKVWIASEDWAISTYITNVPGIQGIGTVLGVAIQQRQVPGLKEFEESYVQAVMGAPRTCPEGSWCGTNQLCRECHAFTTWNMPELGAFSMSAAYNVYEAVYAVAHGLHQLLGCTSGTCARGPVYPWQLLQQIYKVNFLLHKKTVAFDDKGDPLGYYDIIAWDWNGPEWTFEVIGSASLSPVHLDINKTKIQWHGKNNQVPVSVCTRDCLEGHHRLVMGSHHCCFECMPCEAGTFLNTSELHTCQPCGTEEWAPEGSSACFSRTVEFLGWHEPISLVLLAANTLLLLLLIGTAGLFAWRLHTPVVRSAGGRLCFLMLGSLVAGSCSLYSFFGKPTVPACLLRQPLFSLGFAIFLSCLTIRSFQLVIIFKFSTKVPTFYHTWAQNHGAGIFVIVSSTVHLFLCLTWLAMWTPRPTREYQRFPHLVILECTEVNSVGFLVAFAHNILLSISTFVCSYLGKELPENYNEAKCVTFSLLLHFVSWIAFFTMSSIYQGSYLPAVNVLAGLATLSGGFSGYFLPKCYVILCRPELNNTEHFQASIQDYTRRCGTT
T1 sequence (Q925D8 21-858 I706N): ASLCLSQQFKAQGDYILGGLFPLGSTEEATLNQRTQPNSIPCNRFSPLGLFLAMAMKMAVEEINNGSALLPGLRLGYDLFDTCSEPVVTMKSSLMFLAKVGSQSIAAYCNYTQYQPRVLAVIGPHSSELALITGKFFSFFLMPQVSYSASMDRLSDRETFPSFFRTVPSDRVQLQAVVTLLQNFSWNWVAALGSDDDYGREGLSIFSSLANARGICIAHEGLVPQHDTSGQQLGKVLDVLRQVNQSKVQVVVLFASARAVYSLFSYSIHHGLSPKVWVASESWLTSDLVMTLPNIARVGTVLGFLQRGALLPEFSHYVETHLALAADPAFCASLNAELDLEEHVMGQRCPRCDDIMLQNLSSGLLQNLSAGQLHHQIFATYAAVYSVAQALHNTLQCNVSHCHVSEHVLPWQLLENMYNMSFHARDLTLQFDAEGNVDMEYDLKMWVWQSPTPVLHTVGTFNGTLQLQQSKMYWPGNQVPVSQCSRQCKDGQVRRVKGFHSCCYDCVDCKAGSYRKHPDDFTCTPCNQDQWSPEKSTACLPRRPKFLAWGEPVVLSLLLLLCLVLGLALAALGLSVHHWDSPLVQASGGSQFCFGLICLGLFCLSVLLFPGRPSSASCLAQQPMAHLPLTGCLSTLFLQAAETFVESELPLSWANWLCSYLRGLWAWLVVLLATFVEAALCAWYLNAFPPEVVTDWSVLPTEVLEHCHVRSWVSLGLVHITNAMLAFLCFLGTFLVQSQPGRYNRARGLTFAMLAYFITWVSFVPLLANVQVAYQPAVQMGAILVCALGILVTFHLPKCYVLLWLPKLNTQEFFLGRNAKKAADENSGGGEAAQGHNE
Assay: Intracellular calcium ion assay, 293 cells coexpressing G protein α-subunits, T1R1 and T1R3
Format: cell-based
Details: 293 cells: T1R1 + T1R3 + G protein α-subunits; 0.67 ml of 1 M saccharide solution added to 2 ml cell suspension; FLUO-4 AM
Method: The coexpression vector for the G protein α-subunit α15 and the G protein α16/Z chimeric protein (hereinafter designated as “G protein α-subunits”) obtained in Example 1-3 was gene transferred to 293 cells, RCB 1637, a human embryonic kidney cell line, available from the Riken Bioresource Center, Ibaraki, Japan, by conventional lipofection. The gene transferred cells were suspended in Dulbecco's Modified Eagle's Medium (D-MEM) supplemented with 1 mg/L of “PUROMYCIN”, a trade mane of puromycin commercialized by Edge Biosystems, MD, USA, and 10% (v/v) of fetal calf serum to give a cell density of 2×10^6 cells/ml and cultured in a plastic petri dish for cell culture. […]
The captioned reactivity test was conducted according to a conventional intracellular calcium ion assay: 293 Cells prepared in Example 3, capable of coexpressing the G protein α-subunits and the sweet taste receptor(s), were cultured in a plastic petri dish for cell culture until reaching its confluent phase. […] Two milliliters of the resultant cell suspension was injected into a glass cuvette, commercialized by Hitachi, Ltd., Tokyo, Japan, and analyzed on “HITACHI 650-40”, a fluorescence spectrophotometer commercialized by Hitachi, Ltd., Tokyo, Japan. […]

Compound | Influx of calcium ion
OC[C@H]1O[C@@](CO)(O[C@H]2O[C@H](CO)[C@@H](O)[C@H](O)[C@H]2O)[C@@H](O)[C@@H]1O [Sucrose, reference compound] | Negative
OC[C@H]1O[C@H](O[C@H]2O[C@H](CO)[C@@H](O)[C@H](O)[C@H]2O)[C@H](O)[C@@H](O)[C@@H]1O [Trehalose] | Positive
